Data published in patent publication US20230233569A1 (Revolution Medicines, Inc., priority 2020, published 2023).
Like-named read-outs stand apart in the source and are kept apart here.

Columns and labels:
NCI-H358 (K-Ras G12C) = assay: CellTiter-Glo cell viability assay, 5-day treatment; assay type: cell-based; details: Homo sapiens, NCI-H358, 120 h, 5-day treatment; read-out: H358 Cell Viability assay data (K-Ras G12C, IC50)
Summary of the method: (§1)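 Five-day compound treatment of plated cells; luminescent read after ~30 min at RT. Percent-of-DMSO data fit to a four-parameter logistic model.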

Capan-1 (K-Ras G12V) = assay: as above; assay type: cell-based; details: Homo sapiens, CAPAN-1, 120 h, 5-day treatment; read-out: Capan-1 Cell Viability assay data (K-Ras G12V, IC50)
Summary of the method: as §1

NRAS G12C = NRAS G12C (Homo sapiens, UniProt P01111+P62937, G12C); assay: Disruption of BRAF RBD interaction with Ras (FRET / MOA assay, with Cyclophilin A); assay type: biochemical
KRAS G13C = KRAS G13C (Homo sapiens, UniProt P01116+P62937, G13C); assay: as above; assay type: biochemical
Summary of the method: (§2)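 TR-FRET: nucleotide-loaded K-Ras mutant or WT with Cyclophilin A and BRAF RBD, compound 10-point 3-fold from 30 μM final, 3 h at 25° C, then anti-His Eu (10 nM) and anti-GST APC (50 nM) for 1.5 h. Decreased FRET ratio versus DMSO gives IC50.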

KRAS G12V = KRAS G12V (Homo sapiens, UniProt P01116+P62937, G12V); assay: as above; assay type: biochemical
Summary of the method: as §2

KRAS G12S = KRAS G12S (Homo sapiens, UniProt P01116+P62937, G12S); assay: as above; assay type: biochemical
Summary of the method: as §2

KRAS G13D = KRAS G13D (Homo sapiens, UniProt P01116+P62937, G13D); assay: as above; assay type: biochemical
Summary of the method: as §2

KRAS WT = KRAS WT (Homo sapiens, UniProt P01116+P62937); assay: as above; assay type: biochemical
Summary of the method: as §2

KRAS G12D = KRAS G12D (Homo sapiens, UniProt P01116+P62937, G12D); assay: as above; assay type: biochemical
Summary of the method: as §2

KRAS G12C = KRAS G12C (Homo sapiens, UniProt P01116+P62937, G12C); assay: as above; assay type: biochemical
Summary of the method: as §2

[1] = NRAS G12C, read-out: NRAS G12C FRET data IC50
[2] = read-out: KRAS G13C FRET data, IC50
[3] = KRAS G12V, read-out: KRAS G12V FRET data IC50
[4] = read-out: KRAS G12S FRET data, IC50
[5] = KRAS G13D, read-out: KRAS G13D FRET data IC50
[6] = KRAS WT, read-out: KRAS WT FRET data IC50
[7] = read-out: KRAS G12D FRET data, IC50
[8] = read-out: KRAS G12C FRET data, IC50

Sequence of KRAS WT (P01116 1-169 isoform P01116-2 limits assumed): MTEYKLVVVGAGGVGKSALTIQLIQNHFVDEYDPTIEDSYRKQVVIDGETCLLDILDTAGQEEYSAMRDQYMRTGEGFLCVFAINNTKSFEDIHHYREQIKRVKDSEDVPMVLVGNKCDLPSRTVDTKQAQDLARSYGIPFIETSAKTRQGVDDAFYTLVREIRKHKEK
Sequence of KRAS WT (P62937 whole entry): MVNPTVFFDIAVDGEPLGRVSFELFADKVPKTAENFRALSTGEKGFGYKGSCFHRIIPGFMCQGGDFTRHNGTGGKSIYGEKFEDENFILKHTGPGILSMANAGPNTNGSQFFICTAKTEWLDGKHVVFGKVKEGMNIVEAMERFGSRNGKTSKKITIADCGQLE
Sequence of NRAS G12C (P01111 whole entry G12C): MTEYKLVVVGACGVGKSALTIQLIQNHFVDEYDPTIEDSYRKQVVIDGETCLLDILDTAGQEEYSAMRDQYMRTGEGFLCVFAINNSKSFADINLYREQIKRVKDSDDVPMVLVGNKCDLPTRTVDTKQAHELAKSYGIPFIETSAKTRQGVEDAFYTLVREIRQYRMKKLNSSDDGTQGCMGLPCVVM
Sequence of NRAS G12C (P62937 whole entry): as the sequence (P62937 whole entry) above
Sequence of KRAS G13C (P01116 1-169 isoform P01116-2 G13C): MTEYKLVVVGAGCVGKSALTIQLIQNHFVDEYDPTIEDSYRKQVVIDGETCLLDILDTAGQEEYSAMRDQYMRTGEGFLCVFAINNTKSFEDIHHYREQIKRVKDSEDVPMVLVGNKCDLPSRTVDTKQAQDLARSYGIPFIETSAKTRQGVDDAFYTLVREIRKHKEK
Sequence of KRAS G13C (P62937 whole entry): as the sequence (P62937 whole entry) above
Sequence of KRAS G12C (P01116 1-169 isoform P01116-2 G12C): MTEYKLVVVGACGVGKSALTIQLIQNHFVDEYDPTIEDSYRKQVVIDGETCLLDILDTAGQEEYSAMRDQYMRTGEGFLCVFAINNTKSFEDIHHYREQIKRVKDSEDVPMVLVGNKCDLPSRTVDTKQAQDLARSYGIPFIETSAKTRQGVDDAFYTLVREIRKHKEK
Sequence of KRAS G12C (P62937 whole entry): as the sequence (P62937 whole entry) above
Sequence of KRAS G12V (P01116 1-169 isoform P01116-2 G12V limits assumed): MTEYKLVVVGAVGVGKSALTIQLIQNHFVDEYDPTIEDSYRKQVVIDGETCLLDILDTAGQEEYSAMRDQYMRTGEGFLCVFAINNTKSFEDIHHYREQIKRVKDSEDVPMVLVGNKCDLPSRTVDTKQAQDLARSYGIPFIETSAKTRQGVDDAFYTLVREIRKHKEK
Sequence of KRAS G12V (P62937 whole entry): as the sequence (P62937 whole entry) above
Sequence of KRAS G12S (P01116 1-169 isoform P01116-2 G12S limits assumed): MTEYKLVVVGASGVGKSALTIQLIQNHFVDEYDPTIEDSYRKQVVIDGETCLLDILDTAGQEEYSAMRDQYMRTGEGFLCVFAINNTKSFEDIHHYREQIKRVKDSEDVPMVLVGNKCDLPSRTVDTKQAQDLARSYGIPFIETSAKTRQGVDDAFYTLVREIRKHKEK
Sequence of KRAS G12S (P62937 whole entry): as the sequence (P62937 whole entry) above
Sequence of KRAS G12D (P01116 1-169 isoform P01116-2 G12D limits assumed): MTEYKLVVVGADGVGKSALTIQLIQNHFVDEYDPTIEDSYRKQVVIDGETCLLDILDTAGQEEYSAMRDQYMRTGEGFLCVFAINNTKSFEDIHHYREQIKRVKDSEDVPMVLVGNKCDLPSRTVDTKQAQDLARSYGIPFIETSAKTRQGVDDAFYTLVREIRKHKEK
Sequence of KRAS G12D (P62937 whole entry): as the sequence (P62937 whole entry) above
Sequence of KRAS G13D (P01116 1-169 isoform P01116-2 G13D limits assumed): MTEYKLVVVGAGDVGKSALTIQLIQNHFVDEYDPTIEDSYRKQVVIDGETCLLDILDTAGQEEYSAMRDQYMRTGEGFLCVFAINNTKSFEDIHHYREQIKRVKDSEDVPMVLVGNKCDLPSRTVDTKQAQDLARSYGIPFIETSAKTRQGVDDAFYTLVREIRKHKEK
Sequence of KRAS G13D (P62937 whole entry): as the sequence (P62937 whole entry) above

In the case of CCn1c(-c2cnccc2COC)c2c3cc(ccc31)-c1cc(O)cc(c1)C[C@H](NC(=O)[C@H](C(C)C)N(C)C(=O)[C@@H]1CCCO1)C(=O)N1CCC[C@H](N1)C(=O)OCC(C)(C)C2 [Example A91], the IC50 (NCI-H358 (K-Ras G12C)) is reported as 100 to 1000 nM, the IC50 (Capan-1 (K-Ras G12V)) is reported as 100 to 1000 nM and the IC50 (NRAS G12C; [1]) is reported as 100 to 1000 nM. For the same molecule, the IC50 (KRAS G13C; [2]) was 100 to 1000 nM, the IC50 (KRAS G12V; [3]) was 100 to 1000 nM and the IC50 (KRAS G12S; [4]) was 100 to 1000 nM. It also gave an IC50 (KRAS G13D; [5]) of 1000 to 10000 nM, an IC50 (KRAS WT; [6]) of 100 to 1000 nM and an IC50 (KRAS G12D; [7]) of 1000 to 10000 nM. For the same molecule, the IC50 (KRAS G12C; [8]) was 100 to 1000 nM.

In the case of CCN(C(=O)N(C)[C@H](C(=O)N[C@H]1Cc2nc(cs2)-c2ccc3c(c2)c(c(-c2cccnc2[C@H](C)OC)n3CC)CC(C)(C)COC(=O)[C@@H]2CCCN(N2)C1=O)C(C)C)C(C)C [Example A333], the IC50 (NCI-H358 (K-Ras G12C)) is reported as 10 to 100 nM, the IC50 (Capan-1 (K-Ras G12V)) is reported as 100 to 1000 nM and the IC50 (NRAS G12C; [1]) is reported as 10 to 100 nM. The IC50 (KRAS G13C; [2]) was 100 to 1000 nM, the IC50 (KRAS G12V; [3]) was 100 to 1000 nM and the IC50 (KRAS G12S; [4]) was 100 to 1000 nM. The IC50 (KRAS G13D; [5]) was 100 to 1000 nM, the IC50 (KRAS WT; [6]) was 10 to 100 nM and the IC50 (KRAS G12D; [7]) was 100 to 1000 nM. For the same molecule, the IC50 (KRAS G12C; [8]) was 10 to 100 nM.

Molecule CCn1c(-c2cnccc2COC)c2c3cc(ccc31)-c1cc(O)cc(c1)C[C@H](NC(=O)[C@H](C(C)C)N(C)C(=O)[C@H]1CCCO1)C(=O)N1CCC[C@H](N1)C(=O)OCC(C)(C)C2 [Example A90] has an IC50 (NCI-H358 (K-Ras G12C)) of 100 to 1000 nM, an IC50 (Capan-1 (K-Ras G12V)) of 100 to 1000 nM and an IC50 (NRAS G12C; NRAS G12C FRET data IC50, NRAS G12C) of 100 to 1000 nM. It also gave an IC50 (KRAS G13C; KRAS G13C FRET data, IC50) of 100 to 1000 nM, an IC50 (KRAS G12V; KRAS G12V FRET data IC50, KRAS G12V) of 100 to 1000 nM and an IC50 (KRAS G12S; KRAS G12S FRET data, IC50) of 100 to 1000 nM. The IC50 (KRAS G13D; KRAS G13D FRET data IC50, KRAS G13D) was 100 to 1000 nM, the IC50 (KRAS WT; KRAS WT FRET data IC50, KRAS WT) was 100 to 1000 nM and the IC50 (KRAS G12D; KRAS G12D FRET data, IC50) was 1000 to 10000 nM. The IC50 (KRAS G12C; KRAS G12C FRET data, IC50) was 100 to 1000 nM.

CCn1c(-c2cnccc2COC)c2c3cc(ccc31)-c1cc(O)cc(c1)C[C@H](NC(=O)[C@H](C(C)C)N(C)C(=O)[C@H]1CCOC1)C(=O)N1CCC[C@H](N1)C(=O)OCC(C)(C)C2 [Example A26] gave an IC50 (NCI-H358 (K-Ras G12C)) of 100 to 1000 nM, an IC50 (Capan-1 (K-Ras G12V)) of 100 to 1000 nM and an IC50 (NRAS G12C; [1]) of 100 to 1000 nM. The IC50 (KRAS G13C; [2]) was 100 to 1000 nM, the IC50 (KRAS G12V; [3]) was 100 to 1000 nM and the IC50 (KRAS G12S; [4]) was 100 to 1000 nM. It also gave an IC50 (KRAS G13D; [5]) of 100 to 1000 nM, an IC50 (KRAS WT; [6]) of 100 to 1000 nM and an IC50 (KRAS G12D; [7]) of 1000 to 10000 nM. The IC50 (KRAS G12C; [8]) was 100 to 1000 nM.

For CCn1c(-c2cccnc2[C@H](C)OC)c2c3cc(ccc31)-c1cc(O)cc(c1)C[C@H](NC(=O)[C@H](C(C)C)N(C)C(=O)[C@@H]1OC[C@@H]3CCC[C@@H]31)C(=O)N1CCC[C@H](N1)C(=O)OCC(C)(C)C2 [Example A407], the IC50 (NCI-H358 (K-Ras G12C)) was 100 to 1000 nM, the IC50 (Capan-1 (K-Ras G12V)) was 100 to 1000 nM and the IC50 (NRAS G12C; [1]) was 10 to 100 nM. It also gave an IC50 (KRAS G13C; [2]) of 10 to 100 nM, an IC50 (KRAS G12V; [3]) of 10 to 100 nM and an IC50 (KRAS G12S; [4]) of 10 to 100 nM. For the same molecule, the IC50 (KRAS G13D; [5]) was 10 to 100 nM, the IC50 (KRAS WT; [6]) was 10 to 100 nM and the IC50 (KRAS G12D; [7]) was 100 to 1000 nM. The IC50 (KRAS G12C; [8]) was 10 to 100 nM.

CCn1c(-c2cccnc2[C@H](C)OC)c2c3cc(ccc31)-c1cc(O)cc(c1)C[C@H](NC(=O)[C@H](C(C)C)N(C)C(=O)[C@H]1CCN(C)C1)C(=O)N1CCC[C@H](N1)C(=O)OCC(C)(C)C2 [Example A100] was tested, and the IC50 (NCI-H358 (K-Ras G12C)) was 100 to 1000 nM, the IC50 (Capan-1 (K-Ras G12V)) was 1000 to 10000 nM and the IC50 (NRAS G12C; [1]) was 10 to 100 nM. The IC50 (KRAS G13C; [2]) was 10 to 100 nM, the IC50 (KRAS G12V; [3]) was 100 to 1000 nM and the IC50 (KRAS G12S; [4]) was 10 to 100 nM. It also gave an IC50 (KRAS G13D; [5]) of 10 to 100 nM, an IC50 (KRAS WT; [6]) of 10 to 100 nM and an IC50 (KRAS G12D; [7]) of 10 to 100 nM. The IC50 (KRAS G12C; [8]) was 10 to 100 nM.

Work on CCn1c(-c2cccnc2[C@H](C)OC)c2c3cc(ccc31)-c1cc(O)cc(c1)C[C@H](NC(=O)[C@H](C(C)C)N(C)C(=O)[C@H]1CCN(C(=O)[C@]3(C)CCCN3C)C1)C(=O)N1CCC[C@H](N1)C(=O)OCC(C)(C)C2 [Example A342] yielded an IC50 (NCI-H358 (K-Ras G12C)) of 10 to 100 nM, an IC50 (Capan-1 (K-Ras G12V)) of 100 to 1000 nM and an IC50 (NRAS G12C; [1]) of 10 to 100 nM.

CCn1c(-c2cccnc2[C@H](C)OC)c2c3cc(ccc31)-c1cc(O)cc(c1)C[C@H](NC(=O)[C@H](C(C)C)N(C)C(=O)[C@H]1C[C@H]1F)C(=O)N1CCC[C@H](N1)C(=O)OCC(C)(C)C2 [Example A162] was tested, and the IC50 (NCI-H358 (K-Ras G12C)) was 10 to 100 nM, the IC50 (Capan-1 (K-Ras G12V)) was 10 to 100 nM and the IC50 (KRAS G12V; [3]) was 10 to 100 nM.

Molecule CCn1c(-c2cccnc2[C@H](C)OC)c2c3cc(ccc31)-c1cc(O)cc(c1)C[C@H](NC(=O)[C@H](C(C)C)N(C)C(=O)C1(CN)CC1)C(=O)N1CCC[C@H](N1)C(=O)OCC(C)(C)C2 [Example A139] has an IC50 (NCI-H358 (K-Ras G12C)) of 100 to 1000 nM, an IC50 (Capan-1 (K-Ras G12V)) of 100 to 1000 nM and an IC50 (NRAS G12C; [1]) of 10 to 100 nM. The IC50 (KRAS G12V; [3]) was 10 to 100 nM and the IC50 (KRAS G12S; [4]) was 10 to 100 nM.
